Test results as given in ChEMBL document CHEMBL1201862, “PubChem BioAssay data set” (2004).
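Protocol summary: plate cells (96-well), add compound at 5 concentrations, incubate 48 h, interpolate endpoints linearly. GI50 marks 50% less growth.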 Active and inactive are the calls of the source. Rule as the data show it: active = GI50 up to about 1.1 µM and inactive = higher. Peptide text beside a SMILES is read from it. * marks the point of attachment. OSu = O=C1CCC(=O)N1O*

How the values were obtained:
Assay in all cases: inhibition of tumour cell growth, NCI panel, 48 h
SK-MEL-2 = test system: SK-MEL-2
SN12C = test system: SN12C
A549 = test system: A549
IGROV-1 = test system: IGROV-1
ACHN = test system: ACHN
HCC 2998 = test system: HCC 2998
OVCAR-5 = test system: OVCAR-5
SF-268 = test system: SF-268
HL-60 = test system: HL-60
SNB-75 = test system: SNB-75
PC-3 = test system: PC-3
EKVX = test system: EKVX
MOLT-4 = test system: MOLT-4
RXF 393 = test system: RXF 393
HCT-15 = test system: HCT-15
RPMI-8226 = test system: RPMI-8226
HT-29 = test system: HT-29
DU-145 = test system: DU-145
SR = test system: SR

Structure (SMILES)	GI50 (SK-MEL-2)	GI50 (SN12C)	GI50 (A549)	GI50 (IGROV-1)	GI50 (ACHN)	GI50 (HCC 2998)	GI50 (OVCAR-5)	GI50 (SF-268)	GI50 (HL-60)	GI50 (SNB-75)	GI50 (PC-3)	GI50 (EKVX)	GI50 (MOLT-4)	GI50 (RXF 393)	GI50 (HCT-15)	GI50 (RPMI-8226)	GI50 (HT-29)	GI50 (DU-145)	GI50 (SR)
COC(=O)/C(=N\N)C(C(=O)C(=O)Nc1cc(Cl)ccc1Cl)c1nc2ccc([N+](=O)[O-])cc2nc1O (stereo not given)	> 100 µM (inactive)	> 100 µM (inactive)	> 100 µM (inactive)	50.1 µM (inactive)	50.9 µM (inactive)	> 100 µM (inactive)	> 100 µM (inactive)	> 100 µM (inactive)	> 100 µM (inactive)	> 100 µM (inactive)	> 100 µM (inactive)	72.9 µM (inactive)	> 100 µM (inactive)	> 100 µM (inactive)	82.6 µM	> 100 µM (inactive)	> 100 µM (inactive)	–	–
N#CC(NCCc1ccccc1)c1ccc(C(C#N)NCCc2ccccc2)cc1 (stereo not given)	> 100 µM (inactive)	97.5 µM (inactive)	> 100 µM (inactive)	> 100 µM (inactive)	> 100 µM (inactive)	83.9 µM (inactive)	> 100 µM (inactive)	69.3 µM (inactive)	14.6 µM (inactive)	–	> 100 µM (inactive)	> 100 µM (inactive)	32.6 µM (inactive)	> 100 µM (inactive)	> 100 µM	–	49.2 µM (inactive)	> 100 µM (inactive)	–
O=C(OCc1ccccc1)c1nc2ccccc2n1S(=O)(=O)c1ccccc1	> 100 µM (inactive)	> 100 µM (inactive)	> 100 µM (inactive)	> 100 µM (inactive)	> 100 µM (inactive)	> 100 µM (inactive)	> 100 µM (inactive)	> 100 µM (inactive)	> 100 µM (inactive)	> 100 µM (inactive)	> 100 µM (inactive)	> 100 µM (inactive)	> 100 µM (inactive)	> 100 µM (inactive)	> 100 µM	> 100 µM (inactive)	> 100 µM (inactive)	> 100 µM (inactive)	–
O=C(O)C(SC1=NC(=O)C2(NN1)c1ccccc1-c1ccccc12)SC1=NC(=O)C2(NN1)c1ccccc1-c1ccccc12	> 10 µM (inactive)	> 10 µM (inactive)	> 10 µM (inactive)	> 10 µM (inactive)	> 10 µM (inactive)	> 10 µM (inactive)	> 10 µM (inactive)	> 10 µM (inactive)	5.14 µM (inactive)	2.74 µM (inactive)	> 10 µM (inactive)	9.64 µM (inactive)	4.09 µM (inactive)	> 10 µM (inactive)	> 10 µM	7.33 µM (inactive)	> 10 µM (inactive)	> 10 µM (inactive)	–
CSC1=C(c2ccc(Cl)cc2)SC(N2CCCCC2)N1c1ccc([N+](=O)[O-])cc1 (stereo not given)	20.5 µM (inactive)	–	29.2 µM (inactive)	29.8 µM (inactive)	25.2 µM (inactive)	41.9 µM (inactive)	28 µM (inactive)	41.3 µM (inactive)	25.5 µM (inactive)	26.2 µM (inactive)	18.5 µM (inactive)	40.6 µM (inactive)	26 µM (inactive)	> 100 µM (inactive)	26.1 µM	16.6 µM (inactive)	30.6 µM (inactive)	–	31.3 µM (inactive)
COC(=O)/C=C(/OC)[C@H](C)[C@H](/C=C/c1csc(-c2csc(C(C)C)n2)n1)OC	28 µM (inactive)	10.3 µM (inactive)	0.136 µM (active)	0.426 µM (active)	0.124 µM (active)	–	> 100 µM (inactive)	0.647 µM (active)	2.51 µM (inactive)	> 100 µM (inactive)	0.126 µM (active)	0.721 µM (active)	0.0703 µM (active)	1.35 µM (inactive)	0.0975 µM	0.373 µM (active)	0.29 µM (active)	–	0.0929 µM (active)
O=C(Oc1ccc2c(-c3ccccc3)c(C(=O)Nc3ccc(Cl)cc3)c(=O)oc2c1)c1ccccc1	> 100 µM (inactive)	> 100 µM (inactive)	> 100 µM (inactive)	> 100 µM (inactive)	> 100 µM (inactive)	–	–	–	> 100 µM (inactive)	52.2 µM (inactive)	–	> 100 µM (inactive)	74.1 µM (inactive)	> 100 µM (inactive)	> 100 µM	> 100 µM (inactive)	> 100 µM (inactive)	–	–
O=C1C=C(NCCOCCO)C(=O)c2c(O)ccc(O)c21	20.1 µM (inactive)	–	28.1 µM (inactive)	36.7 µM (inactive)	27.2 µM (inactive)	17.5 µM (inactive)	> 100 µM (inactive)	31.8 µM (inactive)	15.3 µM (inactive)	61.7 µM (inactive)	28.1 µM (inactive)	–	26.1 µM (inactive)	33.3 µM (inactive)	22.9 µM	22.7 µM (inactive)	20.4 µM (inactive)	99.3 µM (inactive)	–
c1ccc(CSCCc2ccncc2)cc1	41.5 µM (inactive)	> 100 µM (inactive)	> 100 µM (inactive)	> 100 µM (inactive)	> 100 µM (inactive)	> 100 µM (inactive)	> 100 µM (inactive)	> 100 µM (inactive)	50.8 µM (inactive)	–	> 100 µM (inactive)	67.9 µM (inactive)	> 100 µM (inactive)	> 100 µM (inactive)	> 100 µM	49.9 µM (inactive)	> 100 µM (inactive)	> 100 µM (inactive)	–
COc1cccc([C@@H]2C/C(=N\NC(=O)C(=O)N[C@@H](C)c3ccccc3)c3ccccc3N2)c1	> 100 µM (inactive)	> 100 µM (inactive)	46.1 µM (inactive)	–	40.6 µM (inactive)	> 100 µM (inactive)	> 100 µM (inactive)	71 µM (inactive)	–	21.3 µM (inactive)	> 100 µM (inactive)	61.4 µM (inactive)	4.1 µM (inactive)	35.3 µM (inactive)	> 100 µM	32.4 µM (inactive)	–	> 100 µM (inactive)	–
Fc1ccc(-c2sc(-c3cccs3)cc2Cc2cccs2)cc1	> 100 µM (inactive)	> 100 µM (inactive)	> 100 µM (inactive)	> 100 µM (inactive)	> 100 µM (inactive)	> 100 µM (inactive)	> 100 µM (inactive)	> 100 µM (inactive)	> 100 µM (inactive)	> 100 µM (inactive)	–	> 100 µM (inactive)	31.1 µM (inactive)	50.6 µM (inactive)	> 100 µM	–	80.2 µM (inactive)	> 100 µM (inactive)	–
CCCC(O)c1ccc2[nH]c3c(C)cc([N+](=O)[O-])c(C)c3c2c1 (stereo not given)	> 100 µM (inactive)	> 100 µM (inactive)	39.3 µM (inactive)	–	> 100 µM (inactive)	> 100 µM (inactive)	> 100 µM (inactive)	> 100 µM (inactive)	> 100 µM (inactive)	> 100 µM (inactive)	–	> 100 µM (inactive)	> 100 µM (inactive)	–	> 100 µM	62.1 µM (inactive)	68.1 µM (inactive)	–	> 100 µM (inactive)
CC(OC(C)(C)C)[C@H](NC(=O)OCc1ccccc1)C(=O)NC(OCc1ccccc1)[C@H]1COC(C)(C)O1 (stereo not given in full)	> 10 µM (inactive)	> 10 µM (inactive)	39.3 µM (inactive)	> 10 µM (inactive)	> 10 µM (inactive)	> 10 µM (inactive)	> 10 µM (inactive)	40.3 µM (inactive)	> 10 µM (inactive)	> 10 µM (inactive)	> 10 µM (inactive)	> 10 µM (inactive)	> 10 µM (inactive)	21.8 µM (inactive)	> 10 µM	–	> 10 µM (inactive)	> 100 µM (inactive)	–
CN1C2=C(CC3=C1CC(C)(C)CC3=O)C(=O)CC(C)(C)C2	–	> 100 µM (inactive)	> 100 µM (inactive)	> 100 µM (inactive)	> 100 µM (inactive)	> 100 µM (inactive)	> 100 µM (inactive)	> 100 µM (inactive)	> 100 µM (inactive)	> 100 µM (inactive)	> 100 µM (inactive)	> 100 µM (inactive)	> 100 µM (inactive)	–	> 100 µM	> 100 µM (inactive)	> 100 µM (inactive)	–	> 100 µM (inactive)
NCCCCC(NC(=O)C(N)Cc1ccc(O)cc1)C(=O)NC(CCCCN)C(=O)NC(CCCCN)C(=O)ON1C(=O)CCC1=O (stereo not given) (H-YKKK-OSu; configuration not given here)	> 100 µM (inactive)	> 100 µM (inactive)	> 100 µM (inactive)	> 100 µM (inactive)	> 100 µM (inactive)	> 100 µM (inactive)	> 100 µM (inactive)	–	> 100 µM (inactive)	> 100 µM (inactive)	> 100 µM (inactive)	> 100 µM (inactive)	> 100 µM (inactive)	> 100 µM (inactive)	> 100 µM	> 100 µM (inactive)	> 100 µM (inactive)	–	> 100 µM (inactive)
Clc1ccc2c(Cl)ncnc2c1	> 100 µM (inactive)	> 100 µM (inactive)	> 100 µM (inactive)	> 100 µM (inactive)	> 100 µM (inactive)	> 100 µM (inactive)	> 100 µM (inactive)	> 100 µM (inactive)	> 100 µM (inactive)	42.8 µM (inactive)	–	63.4 µM (inactive)	> 100 µM (inactive)	–	> 100 µM	> 100 µM (inactive)	> 100 µM (inactive)	–	> 100 µM (inactive)
CC(=O)c1ccc2c(c1)oc(=O)n2CCN(C)C	> 100 µM (inactive)	–	–	32.1 µM (inactive)	> 100 µM (inactive)	–	> 100 µM (inactive)	> 100 µM (inactive)	> 100 µM (inactive)	21.7 µM (inactive)	> 100 µM (inactive)	> 100 µM (inactive)	> 100 µM (inactive)	> 100 µM (inactive)	> 100 µM	–	93.8 µM (inactive)	–	> 100 µM (inactive)
